# Source: patent publication US20200017496A1 (priority 2017, published 2020)
# Read-outs that look alike come from different tables or passages of the source.
# Tests used:
# Experiment in all cases: MIC of compounds alone and combined with antibacterials, broth microdilution (CLSI)
# Format in all cases: cell-based
# [1] = tested on: Providencia rettgeri (PRE) isolates
# Protocol: (§1) Method 2: MIC of Compounds Alone and Combined with Antibacterials Against Bacterial Isolates.
# (§2) Compounds of the present invention were assessed against genotyped bacterial strains (Table 3, 4) alone or in combination with an antibacterial (Table 2). […] Log phase bacterial suspensions were adjusted to a final density of 5·10^5 CFU/mL in cation-adjusted Mueller-Hinton broth (ca-MHB; Becton-Dickinson and Company) and added to each well (98 μL). Microplates were incubated for 16-20 h at 35° C. in ambient air. The MIC of the compounds was defined as the lowest concentration of said compounds that prevented bacterial growth as read by visual inspection. The MIC of ATB at each compound concentration was defined as the lowest concentration of ATB that prevented bacterial growth as read by visual inspection.
# [2] = tested on: Providencia stuartii (PST) isolates; settings: for MIC ATB in combination: AF1 @ 4 μg/mL; for MIC: alone
# Protocol: as §1, §2
# [3] = tested on: Escherichia coli (ECO) isolates; settings: for MIC ATB in combination: AF1 @ 4 μg/mL; for MIC: alone
# Protocol: as §1, §2
# [4] = tested on: Salmonella typhimurium (STY) isolates; settings: STY S3371
# Protocol: as §1, §2
# [5] = tested on: Enterobacter aerogenes (EAE) isolates; settings: for MIC ATB in combination: AF1 @ 4 μg/mL
# Protocol: as §1, §2
structure (smiles),measurement,setting,value
"C=CC1=C(C(=O)O)N2C(=O)[C@@H](NC(=O)/C(=N\O)c3csc(N)n3)[C@H]2SC1 [CDR, Cefdinir]",MIC ATB in combination,"[1]; PRE UFR99, AF1 @ 4 μg/mL",>128 µg/mL
same,MIC ATB in combination,"[1]; strain PRE UFR236, antibacterial combined with AF1 @ 4 μg/mL",2 µg/mL
same,MIC ATB in combination,[2]; PST UFR94,<=0.25 μg/mL
same,MIC ATB in combination,[2]; PST UFR95,1 µg/mL
same,MIC ATB in combination,[2]; PST UFR235,2 µg/mL
same,MIC ATB in combination,[3]; ECO 4133,<=0.25 μg/mL
same,MIC ATB in combination,[3]; ECO 5302,<=0.25 μg/mL
same,MIC ATB in combination,[3]; ECO 131119,<=0.25 μg/mL
same,MIC ATB in combination,[3]; ECO 180070,<=0.25 μg/mL
same,MIC ATB in combination,[3]; ECO 190314,<=0.25 μg/mL
same,MIC ATB in combination,[3]; ECO 190317,<=0.25 μg/mL
same,MIC ATB in combination,[3]; ECO 190457,<=0.25 μg/mL
same,MIC ATB in combination,[3]; ECO 190549,<=0.25 μg/mL
same,MIC ATB in combination,[3]; ECO 200159,<=0.25 μg/mL
same,MIC ATB in combination,[3]; ECO 200259,<=0.25 μg/mL
same,MIC ATB in combination,[3]; ECO 200344,<=0.25 μg/mL
same,MIC ATB in combination,[3]; ECO 260096,<=0.25 μg/mL
same,MIC ATB in combination,[3]; ECO 260304,<=0.25 μg/mL
same,MIC ATB in combination,[3]; ECO 260508,<=0.25 μg/mL
same,MIC ATB in combination,[3]; ECO RGN238,<=0.25 μg/mL
same,MIC ATB in combination,[3]; ECO UFR15,<=0.25 μg/mL
same,MIC ATB in combination,[3]; ECO UFR16,1 µg/mL
same,MIC ATB in combination,[3]; ECO UFR18,4 µg/mL
same,MIC ATB in combination,[3]; ECO UFR19,2 µg/mL
same,MIC ATB in combination,[3]; ECO UFR20,16 µg/mL
same,MIC ATB in combination,[3]; ECO UFR61O,0.25 µg/mL
same,MIC ATB in combination,[3]; ECO UFR62,0.5 µg/mL
same,MIC ATB in combination,[3]; ECO UFR74,1 µg/mL
same,MIC ATB in combination,[3]; ECO UFR86,1 µg/mL
same,MIC ATB in combination,[3]; ECO UFR174,<=0.25 μg/mL
same,MIC ATB in combination,[3]; ECO UFR175,0.5 µg/mL
same,MIC ATB in combination,[3]; ECO UFR176,<=0.25 μg/mL
same,MIC ATB in combination,[3]; ECO UFR184,16 µg/mL
same,MIC ATB in combination,[3]; ECO UFR186,1 µg/mL
same,MIC ATB in combination,[3]; ECO UFR187,0.5 µg/mL
same,MIC ATB in combination,[3]; ECO UFR189,<=0.25 μg/mL
same,MIC ATB in combination,[3]; ECO UFR190,0.5 µg/mL
same,MIC ATB in combination,[3]; ECO UFR191,1 µg/mL
same,MIC ATB in combination,[3]; ECO UFR207,<=0.25 μg/mL
same,MIC ATB in combination,[3]; ECO UFR209,<=0.25 μg/mL
same,MIC ATB in combination,[3]; ECO UFR210,<=0.25 μg/mL
same,MIC ATB in combination,[3]; ECO UFR211,<=0.25 μg/mL
same,MIC ATB in combination,[3]; ECO UFR212,32 µg/mL
same,MIC ATB in combination,[3]; ECO UFR218,<=0.25 μg/mL
same,MIC ATB in combination,[4]; AF1 @ 4 μg/mL,<=0.25 μg/mL
same,MIC ATB in combination,[5]; EAE 49469,16 µg/mL
same,MIC ATB in combination,[5]; EAE 200261,8 µg/mL
same,MIC ATB in combination,[5]; EAE UFR199,1 µg/mL
same,MIC ATB in combination,[5]; EAE UFR201,<=0.25 μg/mL
same,MIC ATB in combination,[5]; EAE UFR202,4 µg/mL
same,MIC ATB in combination,[5]; EAE UFR213,4 µg/mL
same,MIC,"[5]; Klebsiella aerogenes, strain EAE 200261 (TEM-x, AmpC), ATB alone, read-out: MIC",> 256 µg/mL
same,MIC,"[5]; Klebsiella aerogenes, strain EAE UFR199 (TEM-1b, SHV-12, KPC-2, OXA-9), ATB alone, read-out: MIC",> 256 µg/mL
NC(=O)[C@@H]1CC[C@@H]2CN1C(=O)N2OC(F)(F)C(=O)[O-].[Na+] [EA1],MIC,"[1]; PRE UFR99, alone",32 µg/mL
same,MIC,"[1]; strain PRE UFR236, compound alone",>32 µg/mL
same,MIC,[2]; PST UFR94,>32 µg/mL
same,MIC,[2]; PST UFR95,>32 µg/mL
same,MIC,[2]; PST UFR235,16 µg/mL
same,MIC,[3]; ECO 4133,16 µg/mL
same,MIC,[3]; ECO 5302,16 µg/mL
same,MIC,[3]; ECO 131119,32 µg/mL
same,MIC,[3]; ECO 180070,>32 µg/mL
same,MIC,[3]; ECO 190314,>32 µg/mL
same,MIC,[3]; ECO 190317,16 µg/mL
same,MIC,[3]; ECO 190457,16 µg/mL
same,MIC,[3]; ECO 190549,16 µg/mL
same,MIC,[3]; ECO 200159,32 µg/mL
same,MIC,[3]; ECO 200259,16 µg/mL
same,MIC,[3]; ECO 200344,>32 µg/mL
same,MIC,[3]; ECO 260096,16 µg/mL
same,MIC,[3]; ECO 260304,32 µg/mL
same,MIC,[3]; ECO 260508,16 µg/mL
same,MIC,[3]; ECO RGN238,>32 µg/mL
same,MIC,[3]; ECO UFR15,32 µg/mL
same,MIC,[3]; ECO UFR16,16 µg/mL
same,MIC,[3]; ECO UFR17,16 µg/mL
same,MIC,[3]; ECO UFR18,16 µg/mL
same,MIC,[3]; ECO UFR19,16 µg/mL
same,MIC,[3]; ECO UFR20,64 µg/mL
same,MIC,[3]; ECO UFR61O,32 µg/mL
same,MIC,[3]; ECO UFR62,16 µg/mL
same,MIC,[3]; ECO UFR74,>32 µg/mL
same,MIC,[3]; ECO UFR86,16 µg/mL
same,MIC,[3]; ECO UFR174,8 µg/mL
same,MIC,[3]; ECO UFR175,32 µg/mL
same,MIC,[3]; ECO UFR176,32 µg/mL
same,MIC,[3]; ECO UFR184,8 µg/mL
same,MIC,[3]; ECO UFR185,16 µg/mL
same,MIC,[3]; ECO UFR186,>32 µg/mL
same,MIC,[3]; ECO UFR187,>32 µg/mL
same,MIC,[3]; ECO UFR189,16 µg/mL
same,MIC,[3]; ECO UFR190,16 µg/mL
same,MIC,[3]; ECO UFR191,32 µg/mL
same,MIC,[3]; ECO UFR207,32 µg/mL
same,MIC,[3]; ECO UFR208,>32 µg/mL
same,MIC,[3]; ECO UFR209,16 µg/mL
same,MIC,[3]; ECO UFR210,16 µg/mL
same,MIC,[3]; ECO UFR211,>32 µg/mL
same,MIC,[3]; ECO UFR212,16 µg/mL
same,MIC,[3]; ECO UFR218,16 µg/mL
same,MIC,[4]; alone,>32 µg/mL
same,MIC,"[5]; EAE 49469, alone",>32 µg/mL
same,MIC,"[5]; EAE 200261, alone",>32 µg/mL
same,MIC,"[5]; EAE UFR199, alone",128 µg/mL
same,MIC,"[5]; EAE UFR201, alone",>32 µg/mL
same,MIC,"[5]; EAE UFR202, alone",>32 µg/mL
same,MIC,"[5]; EAE UFR213, alone",>32 µg/mL
